Columns and labels:
Kidney = test: Antioxidant activity in Sprague-Dawley rat kidney assessed as lipid peroxidation by thiobarbituric acid assay; assay type: functional, tissue-based
Liver = test: Antioxidant activity in Sprague-Dawley rat liver assessed as lipid peroxidation by thiobarbituric acid assay; assay type: functional, tissue-based
A549 = test: Cytotoxicity against human A549 cells after 48 hrs by MTT assay; assay type: functional, cell-based
HL-60 = test: Cytotoxicity against human HL60 cells after 72 hrs by CCK8 method; assay type: functional, cell-based
RPMI-8226 = test: Cytotoxicity against human RPMI8226 cells after 72 hrs by CCK8 method; assay type: functional, cell-based
[1] = Rattus norvegicus, Sprague-Dawley, Kidney
[2] = Rattus norvegicus, Sprague-Dawley, Liver

Compound	IC50 (Kidney) [nM]	IC50 (Liver) [nM]	IC50 (A549; a549) [nM]	IC50 (HL-60; hl-60) [nM]	IC50 (RPMI-8226; rpmi-8226) [nM]	IC50 (Kidney; [1]) [nM]	IC50 (Liver; [2]) [nM]	IC50 (A549; Homo sapiens, A549, 48 h) [nM]	IC50 (HL-60; Homo sapiens, HL-60, 72 h) [nM]	IC50 (RPMI-8226; Homo sapiens, RPMI-8226, 72 h) [nM]
COc1cc([C@@H]2c3cc4c(cc3C[C@H]3COC(=O)[C@@H]32)OCO4)cc(OC)c1OC(=O)CNC(=O)OC1CC(C)(C)N([O])C(C)(C)C1	13700	14400	620	8.7	73	–	–	–	–	–
COc1cc([C@@H]2c3cc4c(cc3C[C@H]3COC(=O)[C@@H]32)OCO4)cc(OC)c1OC(=O)[C@H](C)NC(=O)OC1CC(C)(C)N([O])C(C)(C)C1	15800	15300	670	12	44	–	–	–	–	–
COc1cc([C@@H]2c3cc4c(cc3C[C@H]3COC(=O)[C@@H]32)OCO4)cc(OC)c1OC(=O)[C@@H](NC(=O)OC1CC(C)(C)N([O])C(C)(C)C1)C(C)C	20300	19300	550	24	160	–	–	–	–	–
COc1cc([C@@H]2c3cc4c(cc3C[C@H]3COC(=O)[C@@H]32)OCO4)cc(OC)c1OC(=O)[C@H](CC(C)C)NC(=O)OC1CC(C)(C)N([O])C(C)(C)C1	12100	18000	770	85	110	–	–	–	–	–
CC[C@H](C)[C@H](NC(=O)OC1CC(C)(C)N([O])C(C)(C)C1)C(=O)Oc1c(OC)cc([C@@H]2c3cc4c(cc3C[C@H]3COC(=O)[C@@H]32)OCO4)cc1OC	6890	13200	830	36	58	–	–	–	–	–
COc1cc([C@@H]2c3cc4c(cc3C[C@H]3COC(=O)[C@@H]32)OCO4)cc(OC)c1OC(=O)[C@@H]1CCCN1C(=O)OC1CC(C)(C)N([O])C(C)(C)C1	14600	9700	600	140	130	–	–	–	–	–
COc1cc([C@@H]2c3cc4c(cc3C[C@H]3COC(=O)[C@@H]32)OCO4)cc(OC)c1OC(=O)[C@H](Cc1ccccc1)NC(=O)OC1CC(C)(C)N([O])C(C)(C)C1	15000	10400	500	18	31	–	–	–	–	–
COc1cc([C@@H]2c3cc4c(cc3C[C@H]3COC(=O)[C@@H]32)OCO4)cc(OC)c1OC(=O)[C@H](Cc1ccc(O)cc1)NC(=O)OC1CC(C)(C)N([O])C(C)(C)C1	16300	15200	270	32	43	–	–	–	–	–
COc1cc([C@@H]2c3cc4c(cc3C[C@H]3COC(=O)[C@@H]32)OCO4)cc(OC)c1O [4'-DEMETHYLDEOXYPODOPHYLLOTOXIN]	–	–	–	–	–	23000	33800	800	110	230
COc1cc([C@@H]2c3cc4c(cc3[C@@H](O[C@@H]3O[C@@H]5CO[C@@H](C)O[C@H]5[C@H](O)[C@H]3O)[C@H]3COC(=O)[C@H]23)OCO4)cc(OC)c1O [ETOPOSIDE]	–	–	–	–	–	64600	46400	830	180	700
